# Reference: article PMC8451604, “Rational formulation engineering of fraxinellone utilizing 6-O-α-D-maltosyl-β-cyclodextrin for enhanced oral bioavailability and hepatic fibrosis therapy” (Drug Delivery, 2021)
# Entries after “also recorded” stand apart in the source; their conditions may differ.
# How the values were obtained:
# [1] = Blood biochemical assay (hematological parameters); type: in vivo, Kunming male mice; details: mice, 7 weeks; for PLT (platelet) / WBC (white blood cell): in 10^9/L (unit assumed); for RBC (red blood cell): in 10^12/L (unit assumed); for HCT (haematocrit) / RDW-CV (red cell volume distribution width): in % (unit assumed); for MCV (mean cell volume) / MPV (meanplateletvolume) / RDW-SD: in fL (unit assumed); for HGB (hemoglobin): in g/L (unit assumed); for MCH (mean corpuscular hemoglobin): in pg (unit assumed)
# Method: The Kunming male mice (weight of 28–30 g) were divided into 10 groups (n = 10): normal group, Frax or G2-β-CD-Frax treatment groups with a Frax dose of 5, 10, and 20 mg/kg, respectively, G2-β-CD solution treatment (equivalent to 20 mg/kg of G2-β-CD-Frax) group. Drug treatment continued every day for 7 weeks. One day after the last administration, blood and major tissues (heart, liver, spleen, lung, and kidney) were obtained from the blank group and drug-treated groups (20 mg/kg) for histological examination. The whole blood was directly analyzed using an automatic blood cell analyzer to obtain hematological parameters. The collected tissues were subjected to histological examination.
# [2] = test system: Caco-2 cells; assay: Cytotoxicity in Caco-2 cells (MTT assay); type: cell-based; details: Caco-2, concentration increased to 200 μg/mL
# Method: Cytotoxicity effects and cellular uptake ability of Frax, CDs, and CDs-Frax complexes were examined using Caco-2 cells. […] Each CD solution was also used to determine whether the cell toxicity was caused by Frax or CDs. For cellular uptake studies, Caco-2 cells were treated with Frax and CDs-Frax (100 μg/mL) for 0.5, 1, and 2 h, respectively. For P-gp inhibition evaluation, the cells were pretreated with verapamil at a concentration of 100 μg/mL and further treated with each drug or formulation. Thereafter, the cells were washed and replenished with fresh PBS (300 μL). The cell lysate was prepared by three cycles of freeze-thaw. Protein concentration in the samples was quantified by the BCA kit while the Frax concentration was determined by HPLC.
# [3] = Stability of Frax in artificial gastrointestinal fluid (SGF/SIF); type: physicochemical; details: SGF/SIF with or without enzymes, 37 °C
# Method: The stability studies were performed according to the previous study (Zhang et al., [2015]). Briefly, 20 μL of DMSO solution of Frax (10 mg/mL) was added to 10 mL of simulated gastric fluid (SGF) or simulated intestinal fluid (SIF) containing pepsin/without pepsin. Afterward, the samples were placed in a shaker (100 rpm, 37 °C). At predetermined timepoints, a suitable amount of samples were withdrawn and mixed with methanol. After a thorough vortex, the mixture was centrifuged and the resulted supernatant was subjected to HPLC to determine Frax content.
# [4] = In vitro drug release by dialysis method; type: physicochemical; details: within 6 h, pH 1.2, 6.8 and 7.4 media, 37 °C
# Method: In vitro drug release performance was studied by a dialysis method in phosphate buffer (pH 6.8 and 7.4) and 0.1 M HCl (pH 1.2) at 37 °C. Briefly, a certain volume of Frax suspension, SBE-β-CD-Frax, G2-β-CD-Frax, and HP-β-CD-Frax dispersion solution were enclosed in 1500 Da dialysis bags, respectively. The dialysis bag was then transferred and immersed into the release medium under gentle shaking. After 0.5, 1, 1.5, 2, 2.5, 3.5, 4, and 6 h, 1 mL of the release media was aspirated and supplemented with 1 mL of fresh media. The Frax concentration in the samples was analyzed by HPLC. The cumulative drug release (%) was calculated with the following Equation (2) (Chuang et al., [2018]): (2) Drug release (%)=Ve∑1n−1Ci+V0Cn/mFrax where V0 (mL) is the release media volume, Cn (μg/mL) is the drug concentration in the sample, Ve (mL) is the replaced medium volume, and mFrax (mg) is the amount of drug in the sample.
# [5] = Stability of Frax in homogenates of gastrointestinal segments; type: in vitro ADME, rats; details: rat GI segment homogenates, 37 °C
# Method: GI segments (the stomach, duodenum, jejunum, ileum, and colon) were immediately isolated after the rats were sacrificed. Thereafter, the mucosa of each segment was homogenized and centrifuged following gently scraping. The supernatant was separated and subjected to BCA protein quantitative kit to adjust the final protein concentration to 1 mg/mL. DMSO solution of Frax (5 mg/mL) was added in the homogenate to achieve a final drug concentration of 20 μg/mL. After incubation at 37 °C for predetermined durations, samples were immediately precipitated by methanol, centrifuged, and injected into HPLC to measure the Frax concentration. The drug concentration measured before the incubation was set to 100%.
structure (smiles),measurement,setting,value
"CC1=C2C(=O)O[C@@H](c3ccoc3)[C@]2(C)CCC1 [Frax, Fraxinellone]",MCHC (mean corpuscular hemoglobin concentration),[1]; 5 mg/kg,342.63 ± 10.38
same,PDW (platelet distribution width),[1]; 5 mg/kg,14.84 ± 0.12
same,PLT (platelet),[1]; 5 mg/kg,1188.13 ± 317.24
same,WBC (white blood cell),[1]; 5 mg/kg,7.78 ± 3.91
same,RBC (red blood cell),[1]; 5 mg/kg,9.21 ± 0.75
same,HCT (haematocrit),[1]; 5 mg/kg,39.54 ± 2.28
same,RDW-CV (red cell volume distribution width),[1]; 5 mg/kg,16.24 ± 1.32
same,MCV (mean cell volume),[1]; 5 mg/kg,43.01 ± 2.17
same,MPV (meanplateletvolume),[1]; 5 mg/kg,6.51 ± 0.32
same,RDW-SD,[1]; 5 mg/kg,29.88 ± 3.52
same,HGB (hemoglobin),[1]; 5 mg/kg,135.50 ± 10.76
same,MCH (mean corpuscular hemoglobin),[1]; 5 mg/kg,14.73 ± 0.49
same,MCHC (mean corpuscular hemoglobin concentration),[1]; 10 mg/kg,344.43 ± 9.64
same,PDW (platelet distribution width),[1]; 10 mg/kg,14.91 ± 0.12
same,PLT (platelet),[1]; 10 mg/kg,1012.71 ± 281.88
same,WBC (white blood cell),[1]; 10 mg/kg,6.46 ± 2.46
same,RBC (red blood cell),[1]; 10 mg/kg,8.42 ± 0.32
same,HCT (haematocrit),[1]; 10 mg/kg,37.15 ± 1.70
same,RDW-CV (red cell volume distribution width),[1]; 10 mg/kg,16.22 ± 0.59
same,MCV (mean cell volume),[1]; 10 mg/kg,43.80 ± 1.44
same,MPV (meanplateletvolume),[1]; 10 mg/kg,6.63 ± 0.44
same,RDW-SD,[1]; 10 mg/kg,30.71 ± 1.70
same,HGB (hemoglobin),[1]; 10 mg/kg,127.00 ± 5.10
same,MCH (mean corpuscular hemoglobin),[1]; 10 mg/kg,15.09 ± 0.46
same,MCHC (mean corpuscular hemoglobin concentration),[1]; 20 mg/kg,338.75 ± 3.58
same,PDW (platelet distribution width),[1]; 20 mg/kg,14.86 ± 0.17
same,PLT (platelet),[1]; 20 mg/kg,1190.00 ± 157.80
same,WBC (white blood cell),[1]; 20 mg/kg,8.32 ± 3.90
same,RBC (red blood cell),[1]; 20 mg/kg,9.07 ± 0.33
same,HCT (haematocrit),[1]; 20 mg/kg,38.83 ± 1.69
same,RDW-CV (red cell volume distribution width),[1]; 20 mg/kg,16.54 ± 0.79
same,MCV (mean cell volume),[1]; 20 mg/kg,42.83 ± 1.54
same,MPV (meanplateletvolume),[1]; 20 mg/kg,6.38 ± 0.23
same,RDW-SD,[1]; 20 mg/kg,30.13 ± 2.23
same,HGB (hemoglobin),[1]; 20 mg/kg,131.50 ± 5.66
same,MCH (mean corpuscular hemoglobin),[1]; 20 mg/kg,14.51 ± 0.46
same,cytotoxicity (in words),[2],marked cell death
same,degradation in simulated GI fluids,[3],rather stable; also recorded: negligible degradation
same,cumulative drug release,[4],< 20%
same,degradation in GI homogenates,[5],negligible degradation
